Laboratory results published in ChEMBL document CHEMBL4265917, “Antibacterial and antioxidant activities for natural and synthetic dual-active compounds” (Eur J Med Chem, 2018).
≈ marks a conversion by molar mass, not a printed value.

What was measured:
[1] = tested on: Staphylococcus aureus; assay: Antibacterial activity against methicillin-resistant Staphylococcus aureus after 24 hrs by microbroth dilution method; type: functional
[2] = tested on: Escherichia coli; assay: Antibacterial activity against Escherichia coli after 16 hrs by broth microdilution method; type: functional
[3] = tested on: Staphylococcus aureus; assay: Antibacterial activity against Staphylococcus aureus after 16 hrs by broth microdilution method; type: functional
[4] = Antioxidant activity assessed as DPPH free radical scavenging activity; type: functional
[5] = tested on: Staphylococcus aureus; assay: Antibacterial activity against Staphylococcus aureus; type: functional
[6] = tested on: Escherichia coli; assay: Antibacterial activity against Escherichia coli; type: functional
[7] = tested on: Escherichia coli; assay: Antibacterial activity against Escherichia coli after 18 hrs by CLSI broth microdilution method; type: functional
[8] = tested on: Staphylococcus aureus; assay: Antibacterial activity against Staphylococcus aureus after 18 hrs by CLSI broth microdilution method; type: functional
[9] = tested on: Bacillus mycoides; assay: Antibacterial activity against Bacillus mycoides FSB 1 after 18 to 24 hrs by microdilution method; type: functional
[10] = tested on: Bacillus subtilis; assay: Antibacterial activity against Bacillus subtilis FSB 2 after 18 to 24 hrs by microdilution method; type: functional
[11] = tested on: Micrococcus luteus; assay: Antibacterial activity against Micrococcus lysodeikticus ATCC 4698 after 18 to 24 hrs by microdilution method; type: functional
[12] = tested on: Staphylococcus aureus; assay: Antibacterial activity against Staphylococcus aureus ATCC 25923 after 18 to 24 hrs by microdilution method; type: functional
[13] = tested on: Staphylococcus aureus; assay: Antibacterial activity against Staphylococcus aureus FSB 30 after 18 to 24 hrs by microdilution method; type: functional
[14] = tested on: Azotobacter chroococcum; assay: Antibacterial activity against Azotobacter chroococcum FSB 14 after 18 to 24 hrs by microdilution method; type: functional
[15] = tested on: Enterobacter cloacae; assay: Antibacterial activity against Enterobacter cloacae FSB 22 after 18 to 24 hrs by microdilution method; type: functional
[16] = tested on: Pectobacterium carotovorum; assay: Antibacterial activity against Erwinia carotovora FSB 31 after 18 to 24 hrs by microdilution method; type: functional
[17] = tested on: Escherichia coli; assay: Antibacterial activity against Escherichia coli ATCC 25922 after 18 to 24 hrs by microdilution method; type: functional
[18] = tested on: Klebsiella pneumoniae; assay: Antibacterial activity against Klebsiella pneumoniae FSB 26 after 18 to 24 hrs by microdilution method; type: functional
[19] = tested on: Pseudomonas fluorescens; assay: Antibacterial activity against Pseudomonas fluorescens FSB 28 after 18 to 24 hrs by microdilution method; type: functional
[20] = tested on: Pseudomonas syringae; assay: Antibacterial activity against Pseudomonas glycinea FSB 40 after 18 to 24 hrs by microdilution method; type: functional, Pseudomonas savastanoi pv. glycinea
[21] = tested on: Pseudomonas savastanoi pv. phaseolicola; assay: Antibacterial activity against Pseudomonas phaseolicola FSB 29 after 18 to 24 hrs by microdilution method; type: functional
[22] = Antioxidant activity assessed as DPPH free radical scavenging activity after 30 to 60 mins by UV-vis spectrophotometric analysis; type: functional
[23] = Antioxidant activity assessed as DPPH free radical scavenging activity incubated for 30 mins in dark condition; type: functional
[24] = Antioxidant activity assessed as DPPH free radical scavenging activity incubated for 30 min by UV-vis spectrophotometric analysis; type: functional
[25] = tested on: Escherichia coli; assay: Antibacterial activity against Escherichia coli KCTC 1924 after 20 to 36 hrs by disc diffusion method; type: functional
[26] = tested on: Staphylococcus aureus; assay: Antibacterial activity against Staphylococcus aureus KCTC 1916 after 20 to 36 hrs by disc diffusion method; type: functional
[27] = tested on: Staphylococcus aureus; assay: Bactericidal activity against Staphylococcus aureus incubated for 24 hrs measured every 30 mins by spectrophotometric analysis; type: functional
[28] = tested on: Enterococcus faecalis; assay: Antibacterial activity against Enterococcus faecalis; type: functional
[29] = tested on: Bacillus subtilis; assay: Antibacterial activity against Bacillus subtilis ATCC 11562 by colorimetric based broth dilution method; type: functional, organism-based
[30] = tested on: Pseudomonas amygdali pv. lachrymans; assay: Antibacterial activity against Pseudomonas syringae pv. lachrymans ATCC 11921 by colorimetric based broth dilution method; type: functional, organism-based

SMILES: COc1cc(/C=C/c2cc(/C=C/c3ccc(OCC(=O)N[C@@H](C)c4ccccc4)c(OC)c3)[nH]n2)ccc1OCC(=O)N[C@@H](C)c1ccccc1
- MIC [1]: 10 to 20 µg/mL (≈ 14.6 to 29.1 µM)

SMILES: COc1ccccc1NC(=O)COc1ccc(/C=C/c2cc(/C=C/c3ccc(OCC(=O)Nc4ccccc4OC)c(OC)c3)[nH]n2)cc1OC
- MIC [1]: 10 to 20 µg/mL (≈ 14.5 to 29 µM)

SMILES: Cc1ccc(C(C)C)cc1O [CARVACROL]
- MIC [2]: 2.5 µg/mL (≈ 16.6 µM)
- MIC [3]: 1.25 µg/mL (≈ 8.32 µM)

SMILES: COc1cccc2c1OCC(c1nnn(Cc3cn(Cc4ccccc4)nn3)n1)=C2
- IC50 [4]: 78.74 µg/mL (≈ 196 µM)
- MIC [5]: 10.5 µg/mL (≈ 26.2 µM)
- MIC [6]: 9.5 µg/mL (≈ 23.7 µM)

SMILES: COc1cc(/C=C/c2cc(/C=C/c3ccc(OCC(=O)N[C@H](C)c4ccccc4)c(OC)c3)[nH]n2)ccc1OCC(=O)N[C@H](C)c1ccccc1
- MIC [1]: 10 to 20 µg/mL (≈ 14.6 to 29.1 µM)

SMILES: Cc1c(O)cc(CCCCCCCCCC[P+](c2ccccc2)(c2ccccc2)c2ccccc2)c(O)c1C
- MIC [7]: 0.6 to 19 µg/mL
- MIC [8]: 0.6 µg/mL

SMILES: Cc1ccc(NC(C)c2c(O)c3ccccc3oc2=O)cc1 (stereo not drawn)
- MIC [9]: 3.9 to 7.8 µg/mL (≈ 13.2 to 26.4 µM)
- MIC [10]: 3.9 to 7.8 µg/mL (≈ 13.2 to 26.4 µM)
- MIC [11]: 3.9 to 7.8 µg/mL (≈ 13.2 to 26.4 µM)
- MIC [12]: 3.9 to 7.8 µg/mL (≈ 13.2 to 26.4 µM)
- MIC [13]: 3.9 to 7.8 µg/mL (≈ 13.2 to 26.4 µM)
- MIC [14]: 3.9 to 7.8 µg/mL (≈ 13.2 to 26.4 µM)
- MIC [15]: 3.9 to 7.8 µg/mL (≈ 13.2 to 26.4 µM)
- MIC [16]: 3.9 to 7.8 µg/mL (≈ 13.2 to 26.4 µM)
- MIC [17]: 3.9 to 7.8 µg/mL (≈ 13.2 to 26.4 µM)
- MIC [18]: 3.9 to 7.8 µg/mL (≈ 13.2 to 26.4 µM)
- MIC [19]: 3.9 to 7.8 µg/mL (≈ 13.2 to 26.4 µM)
- MIC [20]: 3.9 to 7.8 µg/mL (≈ 13.2 to 26.4 µM)
- MIC [21]: 3.9 to 7.8 µg/mL (≈ 13.2 to 26.4 µM)
- IC50 [22]: 94 µM

SMILES: CC(Nc1ccc([N+](=O)[O-])cc1)c1c(O)c2ccccc2oc1=O (stereo not drawn)
- MIC [9]: 3.9 to 31.2 µg/mL (≈ 12 to 95.6 µM)
- MIC [10]: 3.9 to 31.2 µg/mL (≈ 12 to 95.6 µM)
- MIC [11]: 3.9 to 31.2 µg/mL (≈ 12 to 95.6 µM)
- MIC [12]: 3.9 to 31.2 µg/mL (≈ 12 to 95.6 µM)
- MIC [13]: 3.9 to 31.2 µg/mL (≈ 12 to 95.6 µM)
- MIC [14]: 3.9 to 31.2 µg/mL (≈ 12 to 95.6 µM)
- MIC [15]: 3.9 to 31.2 µg/mL (≈ 12 to 95.6 µM)
- MIC [16]: 3.9 to 31.2 µg/mL (≈ 12 to 95.6 µM)
- MIC [17]: 3.9 to 31.2 µg/mL (≈ 12 to 95.6 µM)
- MIC [18]: 3.9 to 31.2 µg/mL (≈ 12 to 95.6 µM)
- MIC [19]: 3.9 to 31.2 µg/mL (≈ 12 to 95.6 µM)
- MIC [20]: 3.9 to 31.2 µg/mL (≈ 12 to 95.6 µM)
- MIC [21]: 3.9 to 31.2 µg/mL (≈ 12 to 95.6 µM)
- IC50 [22]: 26 µM

SMILES: COc1cc(C2CC(C(=NNc3ccc(C)cc3)C3=NC(=S)NC(c4ccc(O)c(OC)c4)C3)=NC(=S)N2)ccc1O (stereo not drawn)
- IC50 [23]: 0.679 µg/mL (≈ 1.13 µM)

SMILES: Oc1ccc2ccccc2c1-c1c[nH]c2ccc(F)cc12
- EC50 [24]: 3 µg/mL (≈ 10.8 µM)
- MIC [25]: 8.71 µg/mL (≈ 31.4 µM)
- MIC [26]: 7.32 µg/mL (≈ 26.4 µM)

SMILES: O=C(/C=C/c1ccc(O)c(O)c1)O[C@@H]1C[C@@](O)(C(=O)O)C[C@@H](O)[C@@H]1O
- EC50 [4]: 13.4 µg/mL (≈ 37.8 µM)

SMILES: COc1ccccc1O [GUAIACOL]
- MBC [27]: ≥ 15 mM
- IC50 [4]: 4.1 µg/mL (≈ 33 µM)

SMILES: COc1cc(/C=C/c2cc(/C=C/c3ccc(OCC(=O)Nc4cccc(C(F)(F)F)c4)c(OC)c3)[nH]n2)ccc1OCC(=O)Nc1cccc(C(F)(F)F)c1
- MIC [1]: 10 to 20 µg/mL (≈ 13 to 26.1 µM)

SMILES: O=C(/C=C/c1ccc(O)c(O)c1)O[C@@H]1C[C@](O)(C(=O)O)C[C@@H](O)[C@H]1O [CHLOROGENIC ACID]
- EC50 [4]: 13.8 µg/mL (≈ 38.9 µM)
- MIC [5]: 32 to 128 µg/mL (≈ 90.3 to 361 µM)
- MIC [28]: 32 to 128 µg/mL (≈ 90.3 to 361 µM)

SMILES: COc1cc(/C=C/c2cc(/C=C/c3ccc(OCC(=O)Nc4cc(Cl)cc(Cl)c4)c(OC)c3)[nH]n2)ccc1OCC(=O)Nc1cc(Cl)cc(Cl)c1
- MIC [1]: 10 to 20 µg/mL (≈ 13 to 26 µM)

SMILES: COc1cc(O)c2c(=O)oc3c(O)c(O)cc(C)c3c2c1
- EC50 [23]: 68.3 µM
- IC50 [29]: 29 µM
- IC50 [30]: 7 µM
